“Also recorded” adds a separate entry of the source. Structures can show the parent of a compound that is named as a salt. Where two headings read alike, the source gives them in different places.
Assays:
[1] = tested on: adherent CA1 human glioblastoma multiforme cells; assay: Viability/proliferation of adherent CA1 glioblastoma cells (MTS); type: cell-based; conditions: for IC50: Homo sapiens
Experimental: In addition, glioma cells were cultured (adherent) in DMEM/F12 medium with 10% FBS to attain about 70% confluency. AIP (ranging from about 1 μM to about 100 μM) was added once or twice as above for 24 hours, 48 hours, or 72 hours and analyzed at these time points for proliferation, cell death and markers.
Ales were screened in patient glioblastoma cells CA1 cells proliferating in adherent cultures. Briefly, cells were cultured in DMEM/F12 medium with 10% FBS to attain about 70% confluency. AIP1, AIP2, or vehicle (control) were added for 24 hours and analyzed for proliferation and survival. […] Cell viability/proliferation was measured by MTS added for additional 2-3 hours (FIG. 10A). Microphotographs of the cells were taken with Hoffman modulation-equipped phase-contrast microscope (FIG. 10B; x20 magnification is shown).

[2] = tested on: CA1 cancer stem cell-derived carcinoid bodies ('carcinospheres'); assay: Carcinoid sphere model of tumor-initiating glioblastoma stem cells; type: cell-based; conditions: Homo sapiens
Experimental: Human glioblastoma cell lines CA1 (also sometimes referred to as BT73) and L1 are cells are available from the Florida Center for Brain Tumor Research University of Florida Biorepository. Glioma cells (for example CA1, U87MG or L1), are suspended by trituration as single cells and plated at a density of about 25,000 cells/mL in low adhesion plates in Neurobasal® medium containing 1% methylcellulose and growth factors. The cultures are treated with single or repeated doses of AIPs (ranging from 0.1 to 20 […]) or vehicle (control) and maintained for 24 hours, 72 hours and 7 days. The number and size of ‘carcinoid’ spheres are quantitated by inverted phase contrast microscopy, and spheres collected for analysis for determination of survival and growth/proliferation.
This suppression of tumor-initiating glioblastoma multiforme stem/progenitor cells was determined using a ‘carcinoid sphere’ model in serum- and in anchorage-free media. The ability to block cancer stem cell activation and to destroy them is very useful for strategies to prevent glioblastoma recurrence. Here, AIPs blocked completely the activation of tumor-initiating CA1 cells and formation of carcinospheres at ≥2 μM concentrations. […] FIG. 9B is a set of representative photographs of the cells treated as indicated.
With respect to methods, generation of carcinoid spheres from GBM was performed essentially as described previously (Cao et al., Composite fatty acid ether amides suppress growth of liver cancer cells in vitro and in an in vivo allograft mouse model, Cell. Oncol. 36(3):247-257, 2013 and Reinartz et al., Functional Subclone Profiling for Prediction of Treatment-Induced Intratumor Population Shifts and Discovery of Rational Drug Combinations in Human Glioblastoma, Clinical Cancer Research: an official journal of the American Association for Cancer Research 23(2):562-574, 2017). […] The number and size of spheres were quantitated by inverted phase contrast microscopy. […]

[3] = Tissue accumulation after intraperitoneal injection; type: in vivo; conditions: mice, hydrochloride
Experimental: To assure brain bioavailability of the inventive compounds, time-dependent brain, liver and […] AIP accumulation was measured after intraperitoneal injection of 2.0 mg AIP2. Mice were sacrificed at specific times following injection. Tissues (blood, brain and liver) were taken, and the lipids extracted, loaded on silica-gel column, washed with diethyl ether, and eluted with 10% ethyl acetate in hexane. The eluates were further purified using gradient HPLC on a C8 reverse phase column and the AIP-corresponding fraction was collected and quantitatively analyzed by […], coupled with electrospray ionization-mass-spectroscopy using internal AIP standard.

[4] = tested on: primary human hepatocytes; assay: Survival of primary human hepatocytes; type: cell-based; conditions: up to 50 μM
Experimental: The cell integrity and structural architecture were not altered following incubation with AIPs for a week (see FIG. 11B).

AKT = AKT kinase activity / basal AKT phosphorylation in HUH-7 cells; type: cell-based, human; conditions: proliferating HUH-7 cells, 10 μM

CCCCCCCC/C=C\CCCCCCCCOCC(O)CNC(C)C (stereo not shown) [AIP2, Octadecenyloxy-3-isopropylamine-propan-2-ol hydrochloride]
Effect on adherent CA1 glioblastoma cells ([1]; 20 μM, hydrochloride): complete shutdown of metabolic activity; also recorded: destroyed all cancer cells
IC50 ([1]; read-out: IC50, growth and survival of human malignant glioblastoma cells (CA1)): 6900 nM
IC50 ([1]; read-out: IC50, proliferating glioblastoma cells): 7100 nM
IC50 ([2]; read-out: IC50, block of development of brain tumor-initiating stem cells): 1100 nM
IC50 ([2]; read-out: IC50, formation and growth of CA1 cancer stem cell-derived carcinoid bodies): 1100 nM
IC50 ([2]; read-out: IC50, inhibition of brain tumor-initiating cancer stem cells): 1100 nM
Blood-brain barrier penetration ([3]; 24 hours after intraperitoneal injection): able to cross the blood-brain barrier; also recorded: significant blood-brain-barrier (BBB) penetration
Tissue accumulation of non-metabolized compound ([3]; intraperitoneal injection of 2 mg, up to 24 hours): did accumulate in brain tissue; also recorded: accumulated in brain and liver in a time-dependent fashion
Survival of primary human hepatocytes [4]: did not reduce survival
Basal AKT phosphorylation (AKT): blocked basal AKT phosphorylation

Reference: patent US11434195B2, “Compositions and methods for treatment of central nervous system tumors” (UNIVERSITY OF FLORIDA RESEARCH FOUNDATION, INC., priority 2017, dated 2022)
